The values that follow come from publication PMC7356390, “Dehydrozingerone, a Curcumin Analog, as a Potential Anti-Prostate Cancer Inhibitor In Vitro and In Vivo” (Molecules, 2020).

A short description of series [1]: In vivo pharmacokinetics and tissue distribution (HPLC). Also on record: species or system male BALB/c mice. To be noted: for concentration at 30 min: 30 min after 100 mg/kg i.p.; for concentration at 60 min: 60 min after 100 mg/kg i.p.; for Tmax: serum, ip, read-out: time to maximum serum concentration after i.p. administration. The method, then:
Figure 5 Levels of serum Cur and DZG recorded in mice after receiving a single dose of Cur or DZG (100 mg/kg body weight) by intraperitoneal (i.p.) injection. Serum concentrations of Cur and DZG were determined by high-performance liquid chromatography (HPLC) using a reversed-phase C18 column (Waters). The mobile phase values were 52% acetonitrile and 48% citric buffer. Each point represents the mean ± S.E. of three or four mice.
A comparison of the pharmacokinetics between Cur and DZG was determined using seven-week-old male BALB/c mice. The designated 32 mice were randomly divided into 3 groups, identified as the control, Cur and DZG groups. Mice were i.p. injected with 50% DMSO in NSS (vehicle control), Cur or DZG at concentrations of 100 mg/kg of body weight for each mouse. The mice were euthanized, and blood from each mouse was collected at 0, 30, 60 and 180 min after injection. Lungs, liver and kidneys were removed and frozen for detection of the levels of concentrations of Cur and DZG.
The concentrations of Cur or DZG in the serum or organ tissues were determined using the HPLC method. The tissues were homogenized in 200 μl of 50% acetonitrile and vortexed for 5 min. Samples were centrifuged at 96.5 g at 4°C for 20 min. Fifty microliters of serum or tissue homogenate was mixed with 1.5-mg/mL trichloroacetic acid in 100 µl of acetonitrile. The substance was then centrifuged at 96.5 g at 4°C for 20 min. Sixty microliters of the supernatant was collected and subjected to HPLC using a reversed-phase C18 column (Waters Corporation, Milford, MA, USA). The mobile phase was composed of 52% acetonitrile and 48% citric buffer (1% w/v citric acid, pH 3.0), and the flow rate was set at 1 mL/min. The detection wavelength for Cur and DZG were 425 and 340 nm, respectively. Concentrations of Cur and DZG in the serum were calculated and compared to the standard curve (0–3200 ng/mL). The limits of quantification for Cur and DZG were 100 and 50 ng/mL, respectively. The extraction recovery from the plasma was approximately 90% for both Cur and DZG.

For series [2], the system named is cyclin D1 expression in PLS10 cells. The experiment in a line: Western blot analysis of cyclin D1 expression. Type of series: cell-based, rat. To be noted: 48 h, p < 0.01 vs control. The procedure:
Cells were treated with Cur (0–20 μM) and DZG (0–200 μM) for 48 h. Cells were harvested for analysis of the cell cycle distribution by the Guava cycle (a,b), while cyclin D1 expression was determined by Western blot analysis (c,d). The level of protein expression was quantified by IMAGE J software. Data are presented as mean ± S.D. of three independent experiments. * p < 0.05 and ** p < 0.01 vs. control (one-way ANOVA, Dunnett’s multiple comparisons test, tested groups vs. control group). […]
Protein concentration was determined using the Bradford method (Thermo Fisher Scientific, Waltham, MA, USA). […]

[3] abbreviates: male, BALB/c, mouse, kidney, intraperitoneal, 100 mg/kg body weight, mean ± S.E., read-out: tissue concentration, Kidneys.
The mark [4] stands for this setting: male, BALB/c, mouse, liver, intraperitoneal, 100 mg/kg body weight, mean ± S.E., read-out: tissue concentration, Liver.
Where [5] appears, read: male, BALB/c, mouse, lung, intraperitoneal, 100 mg/kg body weight, mean ± S.E., read-out: tissue concentration, Lung.
Setting [6] is: male, BALB/c, mouse, single dose 100 mg/kg i.p., mice.
Where [7] appears, read: single dose 100 mg/kg i.p., mice.

Read-outs that look alike come from different tables or passages of the source. A value given as a limit tells only on which side of the number the result lay.

For the molecule `COc1cc(/C=C/C(C)=O)ccc1O` [DZG, (E)-4-(4-hydroxy-3-methoxyphenyl)-but-3-en-2-one], in series [1] (setting [3]), the concentration at 30 min was 5920 ± 3800 ng/g and the concentration at 60 min was determined as 9750 ± 4080 ng/g. For the same molecule, the concentration at 180 min in series [1] (male, BALB/c, mouse, kidney, intraperitoneal, 100 mg/kg body weight, 180 min after 100 mg/kg i.p., mean ± S.E., read-out: tissue concentration, Kidneys) was determined as 860 ± 220 ng/g. Moreover, in series [1] (setting [4]), the concentration at 30 min is 920 ± 670 ng/g and the concentration at 60 min is 410 ± 110 ng/g. Moreover, in series [1] (setting [5]), the concentration at 30 min stood at 1410 ± 740 ng/g and the concentration at 60 min was determined as 720 ± 280 ng/g. For the same molecule, the Tmax in series [1] (setting [6]) was ≤ 30 min. Further, in series [1] (setting [7]), the maximum serum concentration was 4.87 ± 2.74 µg/mL, the “time at detectable concentrations in the serum after i.p. injection” value is “up to 3 h” and the “time of highest concentration in the kidneys after injection” value was 1 h. Besides, in series [2] (150 and 200 µM), the “cyclin D1 expression” value was “decreased”.

For the molecule `COc1cc(/C=C/C(=O)CC(=O)/C=C/c2ccc(O)c(OC)c2)ccc1O` [Cur, Curcumin], the concentration at 30 min in series [1] (setting [3]) turned out to be 1010 ± 550 ng/g; in series [1] (setting [4]), 2600 ± 780 ng/g; in series [1] (setting [5]) it was 1150 ± 1300 ng/g. Further, the concentration at 60 min in series [1] (setting [3]) is 530 ± 190 ng/g. For the same molecule, in series [1] (setting [6]), the Tmax was ≤ 30 min. The same molecule showed a maximum serum concentration in series [1] (setting [7]) of 2.28 ± 2.42 µg/mL. In addition, the “time at detectable concentrations in the serum after i.p. injection” value in series [1] (setting [7]) is recorded as ≤ 1 h. The “cyclin D1 expression” value in series [2] (15 and 20 µM) is “decreased”.
